What was measured:
CEM-SS = assay: Antiviral activity against HIV-1 infected HXB2/CEM-SS cell lines.; type: functional; conditions: Homo sapiens
[1] = biological target: Human immunodeficiency virus type 1 protease (Human immunodeficiency virus 1, UniProt Q72874); assay: In vitro inhibition of HIV-1 protease.
[2] = Plasma half-life following oral administration in Fisher rats; type: ADME, organism-based; conditions: rat
[3] = Bioavailability in rat (Fisher) (fasted); type: ADME, organism-based; conditions: in vivo
Rattus norvegicus = organism: Rattus norvegicus; assay: (§1) Compound was tested for the duration that the plasma drug concentrations remained above the IC95; type: ADME, organism-based; conditions: in vivo
[4] = Cmax value was determined between 15 and 30 minutes post administration in fisher rats; value ranges from 200-500; type: ADME, organism-based; conditions: rat, in vivo
[5] = Peak plasma level between 0.5 and 1.0 hour in Dawley rats; value ranges from 1021-2551; type: ADME, organism-based; conditions: Sprague-Dawley, rat, read-out: Plasma level
[6] = as §1; type: ADME, cell-free
[7] = Plasma half-life following oral administration in fisher rats; type: ADME, organism-based; conditions: rat
[8] = Bioavailability in fasted fisher rats; type: ADME, organism-based; conditions: rat, in vivo

SMILES | IC95 (CEM-SS) | IC50 [1] | other results
CC(C)(C)NC(=O)[C@@H]1C[C@@H]2SCC[C@@H]2CN1C[C@@H](O)[C@H](CSc1ccccc1)NC(=O)O[C@H]1CCS(=O)(=O)C1 | 59 nM | 1.7 nM | 
CC(C)[C@@H]1SCC[C@@H]1OC(=O)N[C@@H](Cc1ccccc1)[C@H](O)CN1C[C@H]2CCS[C@H]2C[C@H]1C(=O)NC(C)(C)C | 686 nM | 2.6 nM | 
CC(C)(C)NC(=O)[C@@H]1C[C@@H]2CCCC[C@@H]2CN1C[C@@H](O)[C@H](Cc1ccccc1)NC(=O)[C@H](CC(N)=O)NC(=O)c1ccc2ccccc2n1 | 21 nM |  | 
CC(C)[C@@H]1[C@H](OC(=O)N[C@@H](Cc2ccccc2)[C@H](O)CN2C[C@H]3CCCC[C@H]3C[C@H]2C(=O)NC(C)(C)C)CCS1(=O)=O | 85 nM | 4.3 nM | 
CC(C)[C@H]1[C@@H](OC(=O)N[C@@H](Cc2ccccc2)[C@H](O)CN2C[C@H]3CCCC[C@H]3C[C@H]2C(=O)NC(C)(C)C)CCS1(=O)=O | 273 nM | 8.1 nM | 
C[C@@H]1[C@H](OC(=O)N[C@@H](Cc2ccccc2)[C@H](O)CN2C[C@H]3CCCC[C@H]3C[C@H]2C(=O)NC(C)(C)C)CCS1(=O)=O | 171 nM | 10 nM | 
CC(C)(C)NC(=O)[C@@H]1C[C@@H]2SCC[C@@H]2CN1C[C@@H](O)[C@H](CSc1ccccc1)NC(=O)O[C@@H]1CCS(=O)(=O)C1 | 59 nM | 2 nM | 
CC(C)[C@H]1[C@@H](OC(=O)N[C@@H](CSc2ccccc2)[C@H](O)CN2C[C@H]3CCS[C@H]3C[C@H]2C(=O)NC(C)(C)C)CCS1(=O)=O | 89 nM |  | 
CC(C)[C@@H]1[C@H](OC(=O)N[C@@H](Cc2ccccc2)[C@H](O)CN2C[C@H]3CCS[C@H]3C[C@H]2C(=O)NC(C)(C)C)CCS1(=O)=O | 38 nM | 1.3 nM | 
C[C@H]1[C@H](OC(=O)N[C@@H](CSc2ccccc2)[C@H](O)CN2C[C@H]3CCS[C@H]3C[C@H]2C(=O)NC(C)(C)C)CCS1(=O)=O | 44 nM | 1.4 nM | 
C[C@H]1OCC[C@H]1OC(=O)N[C@@H](CSc1ccccc1)[C@H](O)CN1C[C@H]2CCS[C@H]2C[C@H]1C(=O)NC(C)(C)C | 2560 nM | 3 nM | 
C[C@@H]1[C@@H](OC(=O)N[C@@H](CSc2ccccc2)[C@H](O)CN2C[C@H]3CCS[C@H]3C[C@H]2C(=O)NC(C)(C)C)CCS1(=O)=O | 45 nM | 5.2 nM | 
CC(C)[C@H]1[C@@H](OC(=O)N[C@@H](Cc2ccccc2)[C@H](O)CN2C[C@H]3CCS[C@H]3C[C@H]2C(=O)NC(C)(C)C)CCS1(=O)=O | 77 nM | 2.6 nM | 
C[C@H]1[C@@H](OC(=O)N[C@@H](CSc2ccccc2)[C@H](O)CN2C[C@H]3CCS[C@H]3C[C@H]2C(=O)NC(C)(C)C)CCS1(=O)=O | 31 nM | 0.4 nM | half-life [2]: 1.55 h; bioavailability [3]: 7.4%; Duration (Rattus norvegicus): 6 h; Cmax [4]: 200 ng/mL; Cmax [5]: 1020 ng/mL
CC(C)[C@H]1SCC[C@H]1OC(=O)N[C@@H](Cc1ccccc1)[C@H](O)CN1C[C@H]2CCS[C@H]2C[C@H]1C(=O)NC(C)(C)C | 85 nM | 0.26 nM | 
CC(C)[C@@H]1[C@H](OC(=O)N[C@@H](CSc2ccccc2)[C@H](O)CN2C[C@H]3CCS[C@H]3C[C@H]2C(=O)NC(C)(C)C)CCS1(=O)=O | 9 nM |  | half-life [2]: 1.4 h; bioavailability [3]: 3.5%; Duration (Rattus norvegicus): 3 h; Cmax [4]: 200 ng/mL; Cmax [5]: 1020 ng/mL
C[C@@H]1[C@H](OC(=O)N[C@@H](CSc2ccccc2)[C@H](O)CN2C[C@H]3CCS[C@H]3C[C@H]2C(=O)NC(C)(C)C)CCS1(=O)=O | 19 nM | 0.75 nM | Cmax [4]: 200 ng/mL; Duration [6]: 5 h; Cmax [5]: 1020 ng/mL; half-life [7]: 2.53 h; bioavailability [8]: 6.3%
C[C@@H]1OCC[C@@H]1OC(=O)N[C@@H](CSc1ccccc1)[C@H](O)CN1C[C@H]2CCS[C@H]2C[C@H]1C(=O)NC(C)(C)C | 162 nM | 0.28 nM | 
